# PubChem BioAssay AID1963966 (Molecular Pharmacology Branch, DTP, NCI, 2024)
# Test system: 935938-334-R-J1-PDC spheroids with HUVEC/MSC, viability
# Assay: Anticancer human tumor 935938-334-R-J1-PDC patient-derived small intestine adenocarcinoma cell line growth inhibition [PI3K]
# Conditions: for IC50: curve of first compound; for viability, T/C: stronger effect = lower value
# Source text: Combinatorial screen of targeted agents with the PI3K inhibitors inavolisib, alpelisib, duvelisib, and copanlisib in multi-cell type tumor spheroids
# A high-throughput screen of multi-cell type tumor spheroids was designed to identify active combinations of targeted small molecules and PI3K pathway inhibitors. Complex spheroids include a stromal component modeled by human endothelial cells (HUVEC) and fibroblasts modeled by human mesenchymal stem cells (MSCs). The concentration ranges selected for each drug and investigational agent were based upon clinically achievable concentrations if the clinical Cmax of the agent was known.
# Compounds. The drugs and investigational agents: inavolisib (NSC800729), alpelisib (NSC765974), duvelisib (NSC772469), copanlisib (NSC816437), ipatasertib (NSC767898), afuresertib (NSC778305), talazoparib (NSC767125), sapanisertib (NSC764658), selumetinib (NSC741078), tovorafenib (DAY101, NSC766906), vemurafenib (NSC761431), ravoxertinib (NSC781343), sotorasib (NSC818433), MRTX1133 (NSC 836407), abemaciclib (NSC 768073), palbociclib (NSC758247), venetoclax (NSC 766270), SY5609 (NSC837396), enzalutamide (NSC755605), and darolutamide (NSC825331), were obtained from the National Cancer Institute (NCI) Developmental Therapeutics Program Chemical Repository. The FDA-approved anticancer drug set is available from the NCI Developmental Therapeutics Program. […] The stock solutions were prepared in dimethyl sulfoxide (DMSO, Sigma-Aldrich, St. Louis, MO, cat. D2650) at 800-fold the tested concentration and stored at -70 degrees C prior to their use. All drugs and investigational agents were tested over a range starting from a high concentration at or near the clinical Cmax and decreasing in half-log increments. If the clinical Cmax for an agent had not been determined, the highest concentration tested was 10 microM.
# Cell Culture. All cells were maintained in an incubator at 37 degrees C and 5% CO2 with 95% humidity. The PDC lines were cultured according to standard operating procedures established by the NCI PDMR (https://pdmr.cancer.gov/sops/default.htm). All PDCs were thawed and cultured in Matrigel-coated flasks prepared with a working solution of 1X Ham's F-12 nutrient mix, without supplementation (Invitrogen, Waltham, MA, cat. 11765054), 100 U/mL penicillin-streptomycin (Invitrogen, cat. 15140122), and 2.5% Matrigel (Corning Inc., Corning, NY, cat. 354248) for the first three passages. The 354836-022-R-J1-PDC, 475296-252-R-J1-PDC, and 997726-040-R-J2-PDC lines were cultured in 6A media, which includes advanced DMEM/F-12 (Thermo Fisher Scientific, cat. 12634028), 10 mM HEPES (Thermo Fisher Scientific, cat. 15630080), 1X GlutaMAX supplement (Thermo Fisher Scientific, cat. 35050061), 0.1 mg/mL primocin (InvivoGen, San Diego, CA, cat. ant-pm-2), 10% defined fetal bovine serum, heat inactivated (HyClone Laboratories Inc., Logan, UT, cat. SH30070.03HI), 50% L-WRN conditioned media (ATCC, cat. CRL-3276), 1.25 mM N-Acetyl-L-cysteine (Sigma-Aldrich, cat. A9165), 10 mM nicotinamide (Sigma-Aldrich, cat. N0636), 1X B-27 supplement (Thermo Fisher Scientific, cat. 17504044), 1X N-2 supplement (Thermo Fisher Scientific, cat. 17502048), and 10 microM Y-27632 dihydrochloride (Tocris Bioscience, Bristol, United Kingdom, cat. 1254). The 624824-186-R-J2-PDC line was cultured in 6C/Colon 1B media, which includes all 6A media components plus 50 ng/mL human EGF recombinant protein (Thermo Fisher Scientific, cat. PHG0311). […]
# [1] = second compound 0.00316 µM, first compound 0.0316 µM
# [2] = second compound 0.00316 µM, first compound 0.1 µM
# [3] = second compound 0.01 µM, first compound 0.0316 µM
# [4] = second compound 0.01 µM, first compound 0.1 µM
# [5] = second compound 0.0316 µM, first compound 0.0316 µM
# [6] = second compound 0.0316 µM, first compound 0.1 µM
# [7] = second compound 0.1 µM, first compound 0.0316 µM
# [8] = second compound 0.1 µM, first compound 0.1 µM
# [9] = second compound 0.316 µM, first compound 0.0316 µM
# [10] = second compound 0.316 µM, first compound 0.1 µM
# [11] = second compound 1 µM, first compound 0.0316 µM
# [12] = second compound 1 µM, first compound 0.1 µM
# 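Further: compound exposure lasted seven days before viability was read.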
# 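Wherever viability, T/C is given: percent of vehicle DMSO treated spheroid viability so 100% = untreated.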
compound,measurement,setting,value
C[C@@H](NC(=O)c1ncnc(N)c1Cl)c1ncc(C(=O)Nc2cc(C(F)(F)F)c(Cl)cn2)s1 + CC(Nc1ccc2c(c1)OCCn1cc(N3C(=O)OCC3C(F)F)nc1-2)C(N)=O,IC50,second compound 0.00316 µM,> 10 µM
same,IC50,second compound 0.01 µM,> 10 µM
same,IC50,second compound 0.0316 µM,> 10 µM
same,IC50,second compound 0.1 µM,> 10 µM
same,IC50,second compound 0.316 µM,9.36 µM
same,IC50,second compound 1 µM,9.57 µM
same,"viability, T/C",[1],97.2%
same,"viability, T/C",[2],92.4%
same,"viability, T/C","second compound 0.00316 µM, first compound 0.316 µM",104%
same,"viability, T/C","second compound 0.00316 µM, first compound 1 µM",110%
same,"viability, T/C","second compound 0.00316 µM, first compound 3.16 µM",87.5%
same,"viability, T/C","second compound 0.00316 µM, first compound 10 µM",99.4%
same,"viability, T/C",[3],95.3%
same,"viability, T/C",[4],88.6%
same,"viability, T/C","second compound 0.01 µM, first compound 0.316 µM",105%
same,"viability, T/C","second compound 0.01 µM, first compound 1 µM",107%
same,"viability, T/C","second compound 0.01 µM, first compound 3.16 µM",111%
same,"viability, T/C","second compound 0.01 µM, first compound 10 µM",90.5%
same,"viability, T/C",[5],94.8%
same,"viability, T/C",[6],88.8%
same,"viability, T/C","second compound 0.0316 µM, first compound 0.316 µM",92.7%
same,"viability, T/C","second compound 0.0316 µM, first compound 1 µM",113%
same,"viability, T/C","second compound 0.0316 µM, first compound 3.16 µM",99.6%
same,"viability, T/C","second compound 0.0316 µM, first compound 10 µM",80.3%
same,"viability, T/C",[7],89%
same,"viability, T/C",[8],98.4%
same,"viability, T/C","second compound 0.1 µM, first compound 0.316 µM",100%
same,"viability, T/C","second compound 0.1 µM, first compound 1 µM",107%
same,"viability, T/C","second compound 0.1 µM, first compound 3.16 µM",92.6%
same,"viability, T/C","second compound 0.1 µM, first compound 10 µM",85.6%
same,"viability, T/C",[9],108%
same,"viability, T/C",[10],111%
same,"viability, T/C","second compound 0.316 µM, first compound 0.316 µM",83.7%
same,"viability, T/C","second compound 0.316 µM, first compound 1 µM",79%
same,"viability, T/C","second compound 0.316 µM, first compound 3.16 µM",104%
same,"viability, T/C","second compound 0.316 µM, first compound 10 µM",47.2%
same,"viability, T/C",[11],66.7%
same,"viability, T/C",[12],95.4%
same,"viability, T/C","second compound 1 µM, first compound 0.316 µM",78.4%
same,"viability, T/C","second compound 1 µM, first compound 1 µM",86.5%
same,"viability, T/C","second compound 1 µM, first compound 3.16 µM",90%
same,"viability, T/C","second compound 1 µM, first compound 10 µM",48.7%
Cn1ncnc1[C@H]1c2n[nH]c(=O)c3cc(F)cc(c23)N[C@@H]1c1ccc(F)cc1 + CC(Nc1ccc2c(c1)OCCn1cc(N3C(=O)OCC3C(F)F)nc1-2)C(N)=O,IC50,second compound 0.00316 µM,> 0.1 µM
same,IC50,second compound 0.01 µM,> 0.1 µM
same,IC50,second compound 0.0316 µM,> 0.1 µM
same,IC50,second compound 0.1 µM,> 0.1 µM
same,IC50,second compound 0.316 µM,> 0.1 µM
same,IC50,second compound 1 µM,0.01 µM
same,"viability, T/C","second compound 0.00316 µM, first compound 0.000316 µM",87.1%
same,"viability, T/C","second compound 0.00316 µM, first compound 0.001 µM",99.8%
same,"viability, T/C","second compound 0.00316 µM, first compound 0.00316 µM",102%
same,"viability, T/C","second compound 0.00316 µM, first compound 0.01 µM",87.2%
same,"viability, T/C",[1],78.6%
same,"viability, T/C",[2],78.2%
same,"viability, T/C","second compound 0.01 µM, first compound 0.000316 µM",79.6%
same,"viability, T/C","second compound 0.01 µM, first compound 0.001 µM",83.4%
same,"viability, T/C","second compound 0.01 µM, first compound 0.00316 µM",112%
same,"viability, T/C","second compound 0.01 µM, first compound 0.01 µM",87.5%
same,"viability, T/C",[3],73.7%
same,"viability, T/C",[4],95.7%
same,"viability, T/C","second compound 0.0316 µM, first compound 0.000316 µM",84.6%
same,"viability, T/C","second compound 0.0316 µM, first compound 0.001 µM",102%
same,"viability, T/C","second compound 0.0316 µM, first compound 0.00316 µM",84.2%
same,"viability, T/C","second compound 0.0316 µM, first compound 0.01 µM",67.9%
same,"viability, T/C",[5],80.6%
same,"viability, T/C",[6],103%
same,"viability, T/C","second compound 0.1 µM, first compound 0.000316 µM",88.1%
same,"viability, T/C","second compound 0.1 µM, first compound 0.001 µM",102%
same,"viability, T/C","second compound 0.1 µM, first compound 0.00316 µM",95.3%
same,"viability, T/C","second compound 0.1 µM, first compound 0.01 µM",79.7%
same,"viability, T/C",[7],93.3%
same,"viability, T/C",[8],78.2%
same,"viability, T/C","second compound 0.316 µM, first compound 0.000316 µM",70.5%
same,"viability, T/C","second compound 0.316 µM, first compound 0.001 µM",94.3%
same,"viability, T/C","second compound 0.316 µM, first compound 0.00316 µM",82.2%
same,"viability, T/C","second compound 0.316 µM, first compound 0.01 µM",91.3%
same,"viability, T/C",[9],62.4%
same,"viability, T/C",[10],85.8%
same,"viability, T/C","second compound 1 µM, first compound 0.000316 µM",67.6%
same,"viability, T/C","second compound 1 µM, first compound 0.001 µM",72%
same,"viability, T/C","second compound 1 µM, first compound 0.00316 µM",45.1%
same,"viability, T/C","second compound 1 µM, first compound 0.01 µM",44.5%
same,"viability, T/C",[11],61.3%
same,"viability, T/C",[12],51%
